Assay type in all cases: physicochemical
Series [1] can be described thus: Solubility of the Ethanedisulfonate Form I in water (visual, aliquot addition). The following applies: water added in aliquots 0.25 to 1 ml to approx. 30 mg; product of Example 2.
Series [2] in a line: Solid state stability of the drug substance (storage 1 month, HPLC assay). To be noted: product of Example 7. Here is the method:
The solid state stability of the drug substance was determined by storing approximately 1.0 g of the material in a glass bottle at a) 40° C./75% Relative Humidity (RH), open exposure, for 1 month and b) at 50° C., closed, for 1 month. […] Solubility of the Ethanedisulfonate Form II

The nature of series [3]: Solubility of the Ethanedisulfonate Form II in water (visual, confirmed by HPLC assay of a saturated solution). To be noted: water added in aliquots 1 to 1000 ml to approx. 100 mg, product of Example 7. The source says:
The visual solubility was confirmed by an HPLC assay of a saturated solution.

Structures are written as SMILES.

The record followed here is patent US20050107440A1, “Rosiglitazone edisylates and their use as antidiabetics” (priority 2001, published 2005).

By Solubility is commonly meant how much of the substance goes into solution per volume. Molecule `CN(CCOc1ccc(CC2SC(=O)NC2=O)cc1)c1ccccn1.O=S(=O)(O)CCS(=O)(=O)O` (stereo not drawn) [Ethanedisulfonate Form I, 5-[4-[2-(N-methyl-N-(2-pyridyl)amino)ethoxy]benzyl]thiazolidine-2,4-dione 1,2-ethanedisulfonate Form I] displayed a Solubility in series [1] of 4.7 mg/mL.
`CN(CCOc1ccc(CC2SC(=O)NC2=O)cc1)c1ccccn1.O=S(=O)(O)CCS(=O)(=O)O` (stereo not drawn) [Ethanedisulfonate Form II, 5-[4-[2-(N-methyl-N-(2-pyridyl)amino)ethoxy]benzyl]thiazolidine-2,4-dione 1,2-ethanedisulfonate Form II]: in series [2] (40° C./75% RH, open exposure), the “Solid state stability: HPLC assay (final content)” value is on record as 98 % initial and the “Solid state stability: degradation” value is on record as “No significant degradation observed”. Besides, in series [2] (50° C., closed), the “Solid state stability: HPLC assay (final content)” value is 99 % initial and the “Solid state stability: degradation” value was “No significant degradation observed”. In series [3], this molecule registered a Solubility of 4.7 mg/mL.
